# System: APTK organoids
# Assay: APTK organoids incubated with UA, flow cytometry
# Format: cell-based, murine
# Source text: Oral UA confers anti-tumor effects in murine colorectal cancer in a T-cell dependent manner. (FIG. 1A) Schematic representation of AOM model and different UA containing diets. (FIG. 1B) Representative images of swiss-roll sections from AOM-induced colon tumors. Scale bars are 2 mm (upper row) and 300 µm (lower row), respectively. (FIG. 1C) Tumor incidence of AOM-induced tumors receiving different UA-containing diets; n=4/5/5. Data are mean ±SD, depicting one of two independent experiments. *p < 0.05 by two-sided t-test. (FIG. 1D) Average lesion size of AOM-induced tumors receiving different UA-containing diets; n=4/5/5. Data are mean ±SD, depicting one of two independent experiments. *p < 0.05 by two-sided t-test. (FIG. 1E) Relative number of CD45^+CD3^+ T cells in colons of AOM-treated mice at week 24 (n>7, pooled from two independent experiments). Data are mean ± SD, **p < 0.01 by two-sided t-test. (FIG. 1F) Organoid treatment scheme. APTK-organoids were incubated in the presence of UA or DMSO for the indicated time points, prior to flow cytometric analysis. (FIG. 1G) Quantification of lysosome formation as assessed by lysotracker MFI via flow cytometry after 24 h incubation at the presence of various UA concentrations (n=5/4/4). Depicts one out of two indepdent experiments. Data are mean ± SD, *p < 0.05; **p < 0.01 as established via two-sided t-test. (FIG. 1H) Mitotracker signal of APTK organoids incubated for 24 h at the presence of UA in vitro (n=4/4/4) and antigen presentation via MHC-I molecules (I) after 48 h of treatment (n=4/4/4). Results from one out of two independent experiments are shown. Data are mean ± SD, statistical analysis was performed via two-sided t-test, *p < 0.05; **p < 0.01, ****p < 0.0001. (FIG. 1I) Upregulation of MHC-I by UA. (FIG. 1J) Experimental setup of oral UA administration in mice with established APTK-s.c. tumors. […] (FIG. 1L) End point tumor weight, (FIG. 1M) CD8+ T cell infiltration in APTK-s.c. tumors assessed by flow cytometry, normalising total number of CD8^+ T cells to tumor weight (n=7 per group). […]
# [1] = increasing concentrations of UA, 24 h
compound,measurement,setting,value
O=c1oc2cc(O)ccc2c2ccc(O)cc12 [Urolithin A],MHC-I (antigen presentation),48 h of treatment,marked upregulation of MHC-I
same,MitoTracker staining,[1],loss of MitoTracker staining
same,formation of lysosomes (lysotracker MFI),[1],dose-dependent formation of lysosomes
